Test results taken from ChEMBL document CHEMBL1909046, “DrugMatrix in vitro pharmacology data”.

What was measured:
[1] = target: Mitogen-activated protein kinase 3 (Homo sapiens, UniProt P27361); assay: DRUGMATRIX: Protein Serine/Threonine Kinase, ERK1 enzyme inhibition (substrate: Myelin Basic Protein); design: species or system Escherichia coli; settings: Not Active = under 50% inhibition at 10 µM
Androgen receptor = target: T1, Androgen receptor (Rattus norvegicus, UniProt P15207); further: in other assays of this panel Not Active means under 50% inhibition at 10 µM
T1 sequence (P15207 whole entry): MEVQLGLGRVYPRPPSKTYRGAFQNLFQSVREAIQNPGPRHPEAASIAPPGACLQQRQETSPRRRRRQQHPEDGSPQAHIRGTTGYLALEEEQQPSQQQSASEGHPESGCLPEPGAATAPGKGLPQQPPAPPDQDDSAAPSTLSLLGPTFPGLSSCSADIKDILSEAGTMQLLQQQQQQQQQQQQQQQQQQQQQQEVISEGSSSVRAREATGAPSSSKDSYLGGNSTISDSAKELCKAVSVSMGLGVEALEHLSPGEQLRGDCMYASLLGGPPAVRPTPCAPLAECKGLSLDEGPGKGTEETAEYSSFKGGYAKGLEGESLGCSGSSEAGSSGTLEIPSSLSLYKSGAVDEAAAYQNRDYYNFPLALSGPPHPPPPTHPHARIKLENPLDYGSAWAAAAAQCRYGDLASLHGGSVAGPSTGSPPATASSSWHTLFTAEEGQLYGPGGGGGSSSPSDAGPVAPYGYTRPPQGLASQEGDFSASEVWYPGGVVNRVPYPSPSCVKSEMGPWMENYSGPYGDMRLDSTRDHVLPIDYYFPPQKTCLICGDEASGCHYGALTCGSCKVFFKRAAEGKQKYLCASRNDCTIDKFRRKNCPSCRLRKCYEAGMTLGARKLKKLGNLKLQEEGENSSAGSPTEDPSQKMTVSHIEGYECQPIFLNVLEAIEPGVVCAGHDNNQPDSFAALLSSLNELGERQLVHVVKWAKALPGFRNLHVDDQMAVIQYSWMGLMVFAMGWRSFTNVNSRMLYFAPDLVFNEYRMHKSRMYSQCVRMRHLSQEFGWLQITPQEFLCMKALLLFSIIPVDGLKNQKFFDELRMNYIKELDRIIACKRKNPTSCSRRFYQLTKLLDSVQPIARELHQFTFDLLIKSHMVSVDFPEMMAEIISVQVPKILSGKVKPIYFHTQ

D(1A) dopamine receptor = D(1A) dopamine receptor (Homo sapiens, UniProt P21728); assay: DRUGMATRIX: Dopamine D1 radioligand binding (ligand: [3H] SCH-23390); assay type: cell membranes, CHO, Membrane; settings: Not Active = under 50% inhibition at 10 µM
Sequence of D(1A) dopamine receptor (P21728 whole entry): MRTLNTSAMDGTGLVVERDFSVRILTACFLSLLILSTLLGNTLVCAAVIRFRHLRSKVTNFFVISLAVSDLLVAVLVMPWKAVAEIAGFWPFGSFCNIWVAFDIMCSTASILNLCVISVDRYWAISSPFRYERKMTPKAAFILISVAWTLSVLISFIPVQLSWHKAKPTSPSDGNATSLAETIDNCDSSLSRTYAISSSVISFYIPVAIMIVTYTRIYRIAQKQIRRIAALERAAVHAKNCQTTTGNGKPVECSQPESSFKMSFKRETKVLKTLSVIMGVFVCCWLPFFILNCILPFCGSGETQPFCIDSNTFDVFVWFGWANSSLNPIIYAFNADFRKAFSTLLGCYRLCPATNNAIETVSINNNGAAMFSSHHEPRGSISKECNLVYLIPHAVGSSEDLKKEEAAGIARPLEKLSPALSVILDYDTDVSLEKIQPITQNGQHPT

Sequence of Mitogen-activated protein kinase 3 (P27361 whole entry): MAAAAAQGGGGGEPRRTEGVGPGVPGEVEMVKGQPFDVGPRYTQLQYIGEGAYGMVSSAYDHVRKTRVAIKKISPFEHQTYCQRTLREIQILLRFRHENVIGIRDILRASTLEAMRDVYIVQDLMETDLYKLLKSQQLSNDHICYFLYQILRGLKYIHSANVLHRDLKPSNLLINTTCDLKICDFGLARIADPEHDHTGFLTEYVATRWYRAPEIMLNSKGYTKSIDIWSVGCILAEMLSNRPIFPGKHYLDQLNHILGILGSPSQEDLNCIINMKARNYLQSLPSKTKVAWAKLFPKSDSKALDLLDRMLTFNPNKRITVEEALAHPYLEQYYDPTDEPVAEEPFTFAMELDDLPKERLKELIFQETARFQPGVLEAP

Compound | IC50 [1] | IC50 (Androgen receptor) | IC50 (D(1A) dopamine receptor; cho) | Ki [1] | Ki (Androgen receptor) | Ki (D(1A) dopamine receptor; cho) | IC50 (D(1A) dopamine receptor; read-out: IC50) [µM] | Ki (D(1A) dopamine receptor; read-out: Ki) [µM]
CC(C)c1cccc(C(C)C)c1O [PROPOFOL] | Not Active | Not Active | Not Active | – | – | – | – | –
CC(C)NCC(O)COc1cccc2[nH]ccc12 (configuration not stated) [PINDOLOL] | Not Active | Not Active | Not Active | – | – | – | – | –
CC(=O)O[C@H]1C(=O)[C@@]2(C)[C@H]([C@H](OC(=O)c3ccccc3)[C@]3(O)C[C@H](OC(=O)[C@H](O)[C@@H](NC(=O)c4ccccc4)c4ccccc4)C(C)=C1C3(C)C)[C@]1(OC(C)=O)CO[C@@H]1C[C@@H]2O [PACLITAXEL] | Not Active | Not Active | Not Active | – | – | – | – | –
CN(C)[C@@H]1C(O)=C(C(N)=O)C(=O)[C@@]2(O)C(O)=C3C(=O)c4c(O)ccc(Cl)c4[C@@](C)(O)[C@H]3C[C@@H]12 [CHLORTETRACYCLINE] | Not Active | Not Active | Not Active | – | – | – | – | –
CCC1(CCC(C)C)C(=O)NC(=O)NC1=O [AMOBARBITAL] | Not Active | Not Active | Not Active | – | – | – | – | –
AURANOFIN | Not Active | Not Active | Not Active | Not Active | Not Active | Not Active | – | –
GRAMICIDIN | Not Active | Not Active | Not Active | Not Active | Not Active | Not Active | – | –
CC(C)=CCC/C(C)=C/CO [GERANIOL] | Not Active | Not Active | Not Active | – | – | – | – | –
GENTAMICIN | Not Active | Not Active | Not Active | Not Active | Not Active | Not Active | – | –
CC(C)NNC(=O)c1ccncc1 [IPRONIAZID] | Not Active | Not Active | Not Active | – | – | – | – | –
Nc1ccc2c3c(cccc13)C(=O)NC2=O | Not Active | Not Active | Not Active | – | – | – | – | –
COc1ccc2c3c1O[C@H]1C[C@@H](O)C=C[C@@]31CCN(C)C2 [GALANTAMINE] | Not Active | Not Active | Not Active | – | – | – | – | –
CCCN(CCC)S(=O)(=O)c1ccc(C(=O)O)cc1 [PROBENECID] | Not Active | Not Active | Not Active | – | – | – | – | –
C[C@H]1O[C@@H](n2cc(F)c(=O)[nH]c2=O)[C@H](O)[C@@H]1O [DOXIFLURIDINE] | Not Active | – | Not Active | – | – | – | – | –
CC[C@H]1CN2CCc3cc(OC)c(OC)cc3[C@@H]2C[C@@H]1C[C@H]1NCCc2cc(OC)c(OC)cc21 [EMETINE] | Not Active | – | Not Active | – | – | – | – | –
O=c1cnn([C@@H]2O[C@H](CO)[C@@H](O)[C@H]2O)c(=O)[nH]1 [6-AZAURIDINE] | Not Active | Not Active | Not Active | – | – | – | – | –
COC(=O)CCc1ccc(OCC(O)CNC(C)C)cc1 (configuration not stated) [ESMOLOL] | Not Active | – | Not Active | – | – | – | – | –
C[C@@H]1O[C@@H](O[C@@H]2C=C3CC[C@@H]4[C@H](CC[C@]5(C)[C@@H](c6ccc(=O)oc6)CC[C@]45O)[C@@]3(C)CC2)[C@H](O)[C@H](O)[C@H]1O [PROSCILLARIDIN] | Not Active | Not Active | Not Active | – | – | – | – | –
NYSTATIN | Not Active | Not Active | Not Active | Not Active | Not Active | Not Active | – | –

Compound | IC50 [1] | IC50 (Androgen receptor) | IC50 (D(1A) dopamine receptor; cho) | Ki [1] | Ki (Androgen receptor) | Ki (D(1A) dopamine receptor; cho) | IC50 (D(1A) dopamine receptor; read-out: IC50) [µM] | Ki (D(1A) dopamine receptor; read-out: Ki) [µM]
COc1cc(N)c(Cl)cc1C(=O)NC1CCN(CCCOc2ccc(F)cc2)CC1OC (configuration not stated) [CISAPRIDE] | Not Active | – | Not Active | – | – | – | – | –
C[C@@H]1C[C@H]2[C@@H]3CCC4=CC(=O)C=C[C@]4(C)[C@@]3(F)[C@@H](O)C[C@]2(C)[C@@]1(O)C(=O)CO [DEXAMETHASONE] | Not Active | – | Not Active | – | – | – | – | –
Brc1c(NC2=NCCN2)ccc2nccnc12 [BRIMONIDINE] | Not Active | – | Not Active | – | – | – | – | –
CC1(C)S[C@@H]2[C@H](NC(=O)[C@H](N)c3ccccc3)C(=O)N2[C@H]1C(=O)O [AMPICILLIN] | Not Active | – | Not Active | – | – | – | – | –
C[n+]1ccccc1/C=N/O.[Cl-] [PRALIDOXIME CHLORIDE] | Not Active | – | Not Active | – | – | – | – | –
CN1[C@@H]2CC[C@H]1C[C@@H](OC(=O)C(CO)c1ccccc1)C2 (some centres not stated) [ATROPINE] | Not Active | – | Not Active | – | – | – | – | –
COc1ccc(C2C(=O)c3ccccc3C2=O)cc1 [ANISINDIONE] | Not Active | – | Not Active | – | – | – | – | –
COC(=O)Nc1nc2ccc([S+]([O-])c3ccccc3)cc2[nH]1 (configuration not stated) [OXFENDAZOLE] | Not Active | – | Not Active | – | – | – | – | –
CC(C(=O)O)c1ccc2oc(-c3ccc(Cl)cc3)nc2c1 (configuration not stated) [BENOXAPROFEN] | Not Active | Not Active | Not Active | – | – | – | – | –
Nc1ccn([C@@H]2O[C@H](CO)[C@@H](O)C2(F)F)c(=O)n1 [GEMCITABINE] | Not Active | – | Not Active | – | – | – | – | –
COc1ccc2[nH]cc(CCNC(C)=O)c2c1 [MELATONIN] | Not Active | – | Not Active | – | – | – | – | –
GADOPENTETATE DIMEGLUMINE | Not Active | Not Active | Not Active | Not Active | Not Active | Not Active | – | –
C[n+]1ccc(-c2cc[n+](C)cc2)cc1.[Cl-].[Cl-] [PARAQUAT DICHLORIDE] | Not Active | Not Active | Not Active | – | – | – | – | –
C[C@@H]1CC[C@@]2(OC1)O[C@H]1[C@@H](O)[C@H]3[C@@H]4CC[C@H]5C[C@@H](O[C@@H]6O[C@H](CO)[C@H](O[C@@H]7O[C@H](CO)C(O)[C@H](O[C@@H]8OC[C@@H](O)[C@H](O)[C@H]8O)[C@H]7O[C@@H]7O[C@H](CO)[C@H](O)[C@H](O[C@@H]8O[C@H](CO)[C@@H](O)[C@H](O)[C@H]8O)[C@H]7O)[C@H](O)[C@H]6O)[C@H](O)C[C@]5(C)[C@H]4CC[C@]3(C)[C@H]1[C@@H]2C (some centres not stated) [DIGITONIN] | Not Active | Not Active | Not Active | – | – | – | – | –
O=C1CN=C(c2ccccc2Cl)c2cc([N+](=O)[O-])ccc2N1 [CLONAZEPAM] | Not Active | Not Active | Not Active | – | – | – | – | –
C[C@@H](CO)NC(=O)[C@@H]1C=C2c3cccc4[nH]cc(c34)C[C@H]2N(C)C1 [ERGONOVINE] | Not Active | Not Active | – | – | – | – | 5.9 | 2.95
CCn1cc(C(=O)O)c(=O)c2cnc(N3CCCC3)nc21 [PIROMIDIC ACID] | Not Active | – | Not Active | – | – | – | – | –
CN(C)CC[C@@H](c1ccc(Cl)cc1)c1ccccn1 [DEXCHLORPHENIRAMINE] | Not Active | – | Not Active | – | – | – | – | –
